Data from patent US8497262B2, “Therapeutic pyrazolonaphthyridine derivatives” (Dart NeuroScience (Cayman) Ltd, priority 2007, dated 2013).

Key:
[1] = system: GABAA receptors; test: Electrophysiology assay (two-electrode voltage clamp, Xenopus oocytes expressing GABAA receptors); assay type: cell-based; settings: positive (Pos) or negative (Neg) modulation of GABA EC10 current at a screening concentration of 10 μM; receptor subtype not stated
Protocol: The modulation of GABAA function is determined by changes in current as determined in an electrophysiology assay, as is detailed below.
mRNA was prepared from lyophilized plasmid pellets containing cDNA inserts encoding the specific GABAA receptor subunit. cDNAs encoding the α2, α3, and γ3 subunits were subcloned into pBluescript, SK^−. cDNAs encoding the α1 and α5 subunits were subcloned into prC while cDNA encoding the β2 subunit was subcloned into pcDNA1. The cDNA construct encoding the γ2s subunit is in the pGH19 expression construct. Overnight cultures of transformed DH5a bacterial cells were performed to grow sufficient quantities for maxiprep isolation of the plasmid cDNA. The resulting plasmid cDNA was linearized by digestion with an appropriate restriction enzyme that cleaves distal to the cDNA insert (XbaI for α1,2, β2, and γ3 or NotI for α3,5 and γ2, respectively). Following digestion, plasmid cDNA was treated with proteinase K and extracted with phenol/chloroform/isoamyl alcohol, followed by ethanol precipitation. cDNA quality was assessed by agarose-gel electrophoresis (1.5% agarose gel). Samples were stored at −20° C. until use. In vitro transcription was performed with T7 RNA polymerase. mRNA was then stored at −80° C. until use. Plasmids were linearized with appropriate restriction enzymes before in vitro transcription using the Message Machine kit (Ambion, Austin, Tex.).
GABAA receptor expression in Xenopus oocytes: Following 45 min of 0.15% Tricaine anesthesia, an ovarian section containing the follicular oocytes was removed from the frog through a lateral abdominal incision. Oocytes were immediately placed in a calcium-free solution (NaCl 96 mM, MgCl2 1 mM, KCl 2 mM, Hepes 50 mM, pyruvate 2.5 mM, gentamycin 100 μg/mL, penicillin-streptomycin 50 U/mL, pH 7.4). Following 1.5-2 hour incubation in 0.2% collagenase (type II, Sigma Chemical Co., St. Louis, Mo.) at room temperature, individual Dumont stage V and VI oocytes were transferred to an incubator and maintained overnight in Barth's solution (NaCl 84 mM, NaHCO3 2.4 mM, MgSO4 0.82 mM, KCl 1 mM, Ca(NO3)2 0.33 mM, CaCl2 0.41 mM, Tris/HCl 7.5 mM, pyruvate 2.5 mM, gentamycin 50 μg/mL, penicillin-streptomycin, 100 units/mL, pH 7.4) at 18-20° C. and used for experiments 1-5 days post-injection. Oocytes were injected solution using an electronic microinjector (Drummond, Broomall, Pa.) with […] of RNA containing 0.3-0.5 ng of each subunit RNA in a 1:1:1 ratio. The injected oocytes were used for experiments after 1-5 days of incubation in Barth's solution at 18-20° C.
Measurements of ion currents from oocytes expressing GABAA receptors were performed using a Warner two-electrode voltage-clamp amplifier (Warner Instruments, Inc., Foster City, Calif.) (Park-Chung, M., et al. (1999) Brain Res. 830: 72-87 incorporated herein in its entirety). Microelectrodes were fabricated from borosilicate glass capillaries with a programmed pipette puller (Sutter Instrument Co., CA). Microelectrode resistance was 1-3 MΩ when filled with 3 M KCl. The oocyte recording chamber was continuously perfused with Ringer solution. Oocytes were clamped at a holding potential of −70 mV during data acquisition. The membrane current was filtered at 10 Hz and sampled at 100 Hz. Compounds were applied by a gravity-driven external perfusion system. The working volume of the recording chamber was 30 μL and the rate of the perfusion was approximately 50 μL/sec. Compound application was 10-20 sec followed by a 90 sec wash. Data acquisition and external perfusion was computer controlled by custom-developed software. All experiments were performed at room temperature (22-24° C.). Dose-response data from each oocyte were fitted to the Hill equation by non-linear regression using the equation: IGABA=Emax/(1+(EC50/c)^n^H) Emax is the maximum response, EC50 is the concentration producing 50% of the maximal response, nH is the Hill coefficient and c is the concentration of agonist. […]

[2] = target: GABAA central benzodiazepine receptor; test: Benzodiazepine binding assay ((3H)-flunitrazepam displacement); settings: read-out: BZ binding assay (IC50); rat whole brain (except cerebellum) membranes, 1 nM (3H)-flunitrazepam, 3-concentration dose response curve

Row | EP result [1] | IC50 [2] [nM] | Compound
1 | Neg | < 1000 | O=c1c2c[nH]c3ccc(N4CCNCC4)nc3c-2nn1-c1ccccc1 [6a, 2-Phenyl-8-(piperazin-1-yl)-2,5-dihydro-pyrazolo[4,3-c][1,5]naphthyridin-3-one]
2 | Neg | < 1000 | CN1CCN(c2ccc3[nH]cc4c(=O)n(-c5ccccc5)nc-4c3n2)CC1 [6b, 8-(4-Methyl-piperazin-1-yl)-2-phenyl-2,5-dihydro-pyrazolo[4,3-c]-[1,5]naphthyridin-3-one]
3 | Neg | < 1 | O=c1c2c[nH]c3ccc(N4CCOCC4)nc3c-2nn1-c1ccccc1 [6c, 8-Morpholin-4-yl-2-phenyl-2,5-dihydro-pyrazolo[4,3-c][1,5]naphthyridin-3-one]
4 |  | < 1 | O=c1c2c[nH]c3ccc(N4CCC(O)CC4)nc3c-2nn1-c1ccccc1 [6d, 8-(4-Hydroxy-piperidin-1-yl)-2-phenyl-2,5-dihydro-pyrazolo[4,3-c][1,5]naphthyridin-3-one]
5 |  | < 1000 | CC1CN(c2ccc3[nH]cc4c(=O)n(-c5ccccc5)nc-4c3n2)CCN1 (stereo not shown) [6e, 8-(3-Methyl-piperazin-1-yl)-2-phenyl-2,5-dihydro-pyrazolo[4,3-c][1,5]naphthyridin-3-one]
6 |  | < 1000 | O=c1c2c[nH]c3ccc(N4CCCC(O)C4)nc3c-2nn1-c1ccccc1 (stereo not shown) [6f, 8-(3-Hydroxy-piperidin-1-yl)-2-phenyl-2,5-dihydro-pyrazolo[4,3-c][1,5]naphthyridin-3-one]
7 |  | < 1000 | O=c1c2c[nH]c3ccc(N4CCN(c5ccc(F)cc5)CC4)nc3c-2nn1-c1ccccc1 [6g, 8-[4-(4-Fluoro-phenyl)-piperazin-1-yl]-2-phenyl-2,5-dihydro-pyrazolo[4,3-c][1,5]naphthyridin-3-one]
8 |  | < 1000 | O=c1c2c[nH]c3ccc(N4CCCNCC4)nc3c-2nn1-c1ccccc1 [6h, 8-[1,4]-Diazepan-1-yl-2-phenyl-2,5-dihydro-pyrazolo[4,3-c][1,5]naphthyridin-3-one]
9 |  | < 1 | O=c1c2c[nH]c3ccc(N4CCCC(CO)C4)nc3c-2nn1-c1ccccc1 (stereo not shown) [6i, 8-(3-Hydroxymethyl-piperidin-1-yl)-2-phenyl-2,5-dihydro-pyrazolo[4,3-c][1,5]naphthyridin-3-one]
10 |  | < 1000 | O=C1CN(c2ccc3[nH]cc4c(=O)n(-c5ccccc5)nc-4c3n2)CCN1 [6j, 8-(3-Oxo-piperazin-1-yl)-2-phenyl-2,5-dihydro-pyrazolo[4,3-c][1,5]naphthyridin-3-one]
11 |  | < 1 | O=c1c2c[nH]c3ccc(N4CCCC4)nc3c-2nn1-c1ccccc1 [6k, 2-Phenyl-8-pyrrolidin-1-yl-2,5-dihydro-pyrazolo[4,3-c][1,5]naphthyridin-3-one]
12 | Pos | < 1000 | O=c1c2c[nH]c3ccc(N4CCN(c5ccccc5)CC4)nc3c-2nn1-c1ccccc1 [6l, 2-Phenyl-8-(4-phenyl-piperazin-1-yl)-2,5-dihydro-pyrazolo[4,3-c][1,5]naphthyridin-3-one]
13 | Pos | < 1000 | CC1CN(c2ccc3[nH]cc4c(=O)n(-c5ccccc5)nc-4c3n2)CC(C)O1 (stereo not shown) [6m, 8-(2,6-Dimethyl-morpholin-4-yl)-2-phenyl-2,5-dihydro-pyrazolo[4,3-c][1,5]naphthyridin-3-one]
14 |  | < 1000 | CN1CCN(c2ccc3[nH]cc4c(=O)n(-c5ccccn5)nc-4c3n2)CC1 [6n, 8-(4-Methyl-piperazin-1-yl)-2-pyridin-2-yl-2,5-dihydro-pyrazolo[4,3-c][1,5]naphthyridin-3-one]
15 |  | < 1000 | O=c1c2c[nH]c3ccc(N4CCOCC4)nc3c-2nn1-c1ccccn1 [6o, 8-Morpholin-4-yl-2-pyridin-2-yl-2,5-dihydro-pyrazolo[4,3-c][1,5]naphthyridin-3-one]
16 |  | < 1000 | CN1CCCN(c2ccc3[nH]cc4c(=O)n(-c5ccccn5)nc-4c3n2)CC1 [6p, 8-(4-Methyl-[1,4]diazepan-1-yl)-2-pyridin-2-yl-2,5-dihydro-pyrazolo[4,3-c][1,5]naphthyridin-3-one]
17 | Pos | < 1000 | CC1CN(c2ccc3[nH]cc4c(=O)n(-c5ccccn5)nc-4c3n2)CCN1 (stereo not shown) [6q, 8-(3-Methyl-piperazin-1-yl)-2-pyridin-2-yl-2,5-dihydro-pyrazolo[4,3-c][1,5]naphthyridin-3-one]
18 |  | < 1 | O=c1c2c[nH]c3ccc(N4CCC(O)CC4)nc3c-2nn1-c1ccccn1 [6r]
19 | Pos | < 1000 | O=c1c2c[nH]c3ccc(N4CCNCC4)nc3c-2nn1-c1ccccn1 [6s, 8-piperazin-1-yl-2-pyridin-2-yl-2,5-dihydro-pyrazolo[4,3-c][1,5]naphthyridin-3-one]
20 | Neg | < 1 | COc1ccc(-n2nc3c4nc(N5CCN(C)CC5)ccc4[nH]cc-3c2=O)cc1 [6t, 2-(4-Methoxy-phenyl)-8-(4-methyl-piperazin-1-yl)-2,5-dihydro-pyrazolo[4,3-c][1,5]naphthyridin-3-one]
21 | Neg | > 1000 | O=c1c2c[nH]c3cc(N4CCNCC4)ncc3c-2nn1-c1ccccc1 [compound 14, 2-Phenyl-7-(piperazin-1-yl)-2,5-dihydro-pyrazolo[4,3-c][1,6]naphthyridin-3-one]
22 |  | > 1000 | O=c1c2c[nH]c3c(N4CCNCC4)nccc3c-2nn1-c1ccccc1 [compound 17, 2-Phenyl-6-(piperazin-1-yl)-2,5-dihydro-pyrazolo[4,3-c][1,7]naphthyridin-3-one]
